Assay results: publication PMC7662226, “Discovery of Novel Indolealkylpiperazine Derivatives as Potent 5-HT1A Receptor Agonists for the Potential Future Treatment of Depression” (Molecules, 2020)

Assays:
Format in all cases: cell-based
human 5-HT2AR = molecular target: T1, human 5-HT2AR (Homo sapiens, UniProt P28223); test: Fluorometric Imaging Plate Reader (FLIPR) assay, 5-HT2AR; details: functional activity, calcium flux, human 5-HT2AR expressed by CHO-K1 cells; NA: no activity
T1 construct: expressed in transfected cells; host or cells: CHO-K1
T1 sequence (P28223 whole entry): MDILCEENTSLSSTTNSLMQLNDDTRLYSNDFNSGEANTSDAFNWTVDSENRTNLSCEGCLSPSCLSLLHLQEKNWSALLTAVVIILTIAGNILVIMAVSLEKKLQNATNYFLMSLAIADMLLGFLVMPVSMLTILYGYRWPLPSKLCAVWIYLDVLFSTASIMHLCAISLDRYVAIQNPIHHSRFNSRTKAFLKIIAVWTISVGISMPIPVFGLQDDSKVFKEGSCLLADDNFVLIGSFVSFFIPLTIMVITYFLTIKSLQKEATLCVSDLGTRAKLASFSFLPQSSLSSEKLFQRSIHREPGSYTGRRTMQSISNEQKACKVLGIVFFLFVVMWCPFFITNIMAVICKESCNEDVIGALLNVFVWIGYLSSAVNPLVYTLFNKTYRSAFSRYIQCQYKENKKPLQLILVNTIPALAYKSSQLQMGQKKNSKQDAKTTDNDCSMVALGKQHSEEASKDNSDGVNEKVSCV
Method: 1.2.2. Fluorometric Imaging Plate Reader (FLIPR) assay
The FLIPR assay was performed to evaluate the function of synthesized compounds to 5-HT2AR with human 5-HT2AR expressed by CHO-K1 cells. Reference compound for 5-HT2AR was […]
[…] After 15 min add 22.5 µl /well of inducer and calcium flux signal is measured. The IC50 values were calculated by nonlinear regression using a sigmoidal function.

human 5-HT1AR = molecular target: T2, human 5-HT1AR (Homo sapiens, UniProt P08908); test: Ultra Lance cAMP assay, 5-HT1AR; details: agonistic functional activity, human 5-HT1AR expressed by HEK-293 cells; NA: no activity
T2 construct: expressed in transfected cells; host or cells: HEK-293
T2 sequence (P08908 1-422): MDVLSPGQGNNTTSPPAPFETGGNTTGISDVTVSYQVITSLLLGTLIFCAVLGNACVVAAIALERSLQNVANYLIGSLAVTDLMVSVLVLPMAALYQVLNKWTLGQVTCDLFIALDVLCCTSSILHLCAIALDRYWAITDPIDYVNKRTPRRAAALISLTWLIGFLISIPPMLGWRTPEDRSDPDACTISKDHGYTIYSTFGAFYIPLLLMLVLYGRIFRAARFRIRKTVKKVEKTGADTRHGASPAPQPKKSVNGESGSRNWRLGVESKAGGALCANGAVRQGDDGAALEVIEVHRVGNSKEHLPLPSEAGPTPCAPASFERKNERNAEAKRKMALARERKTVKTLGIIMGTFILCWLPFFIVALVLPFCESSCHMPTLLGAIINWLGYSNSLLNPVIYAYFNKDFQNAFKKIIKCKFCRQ
Method: (§1) 1.2 Biological Evaluation
(§2) 1.2.1. Ultra Lance cAMP assay
(§3) The Ultra Lance cAMP assay was performed to evaluate the function of synthesized compounds to D2R and 5-HT1AR with human D2R and 5-HT1AR expressed by HEK-293 cells.
(§4) […] The IC50 values were calculated by nonlinear regression using a sigmoidal function.

human D2R = molecular target: T3, human D2R (Homo sapiens, UniProt P14416); test: Ultra Lance cAMP assay, D2R; details: functional activity, human D2R expressed by HEK-293 cells; NA: no activity
T3 construct: expressed in transfected cells; host or cells: HEK-293
T3 sequence (P14416 whole entry): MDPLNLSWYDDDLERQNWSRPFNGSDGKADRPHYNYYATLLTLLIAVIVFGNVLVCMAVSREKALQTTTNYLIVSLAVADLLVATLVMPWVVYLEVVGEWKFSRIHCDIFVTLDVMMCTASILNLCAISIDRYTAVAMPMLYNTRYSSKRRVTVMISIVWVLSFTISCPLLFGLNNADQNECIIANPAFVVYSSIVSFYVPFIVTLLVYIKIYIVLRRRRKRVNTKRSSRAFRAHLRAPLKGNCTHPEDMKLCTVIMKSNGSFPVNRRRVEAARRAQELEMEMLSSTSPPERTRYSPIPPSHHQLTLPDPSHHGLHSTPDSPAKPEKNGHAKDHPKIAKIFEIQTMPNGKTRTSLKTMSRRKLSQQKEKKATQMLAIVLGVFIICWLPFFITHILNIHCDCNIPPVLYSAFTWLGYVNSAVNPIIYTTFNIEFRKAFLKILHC
Method: as §1, §2, §3, §4

Compound | IC50 (human 5-HT2AR) [nM] | EC50 (human 5-HT1AR) [nM] | 5-HT1AR EC50 (human 5-HT1AR) | IC50 (human D2R) [nM]
CCOc1ccc(S(=O)(=O)NCC2CC2)cc1C(=O)N1CCN(CCCc2c[nH]c3ccc(C#N)cc23)CC1 [Compound 13p, 3-(4-(3-(5-cyano-1H-indol-3-yl)propyl)piperazine-1-carbonyl)-N-(cyclopropylmethyl)-4-ethoxybenzenesulfonamide] | 4730 | 48.2 |  | 
CNS(=O)(=O)c1ccc(OCC2CC2)c(C(=O)N2CCN(CCCc3c[nH]c4ccc(C#N)cc34)CC2)c1 [Compound 13f] | 1100 | 23.6 |  | 
N#Cc1ccc2[nH]cc(CCCN3CCN(C(=O)c4cc(S(=O)(=O)NCC5CC5)ccc4OC4COC4)CC3)c2c1 [Compound 13q, 3-(4-(3-(5-cyano-1H-indol-3-yl)propyl)piperazine-1-carbonyl)-N-(cyclopropylmethyl)-4-(oxetan-3-yloxy)benzenesulfonamide] |  | 175 |  | 
CS(=O)(=O)c1ccc(F)c(C(=O)N2CCN(CCCc3c[nH]c4ccc(C#N)cc34)CC2)c1 [Compound 13a] | > 5000 | 168 |  | 
CNS(=O)(=O)c1ccc(OC(C)C)c(C(=O)N2CCN(CCCc3c[nH]c4ccc(C#N)cc34)CC2)c1 [Compound 13j] |  |  | completely lose activity | 
CC(C)COc1ccc(S(=O)(=O)NCC2CC2)cc1C(=O)N1CCN(CCCc2c[nH]c3ccc(C#N)cc23)CC1 [Compound 13m] | 1530 | 1.01 |  | > 5000
CCS(=O)(=O)c1ccc(OCC2CC2)c(C(=O)N2CCN(CCCc3c[nH]c4ccc(C#N)cc34)CC2)c1 [Compound 13e] | 1290 | 49.2 |  | > 5000
CC(C)Oc1ccc(S(=O)(=O)NCC2CC2)cc1C(=O)N1CCN(CCCc2c[nH]c3ccc(C#N)cc23)CC1 [Compound 13o, 3-(4-(3-(5-cyano-1H-indol-3-yl)propyl)piperazine-1-carbonyl)-N-(cyclopropylmethyl)-4-isopropoxybenzenesulfonamide] |  | 22.8 |  | 
CS(=O)(=O)c1ccc(N2CCOCC2)c(C(=O)N2CCN(CCCc3c[nH]c4ccc(C#N)cc34)CC2)c1 [Compound 13b] |  | 990 |  | 
CNS(=O)(=O)c1ccc(OC2COC2)c(C(=O)N2CCN(CCCc3c[nH]c4ccc(C#N)cc34)CC2)c1 [Compound 13l] |  | 524 |  | 
CC(Oc1ccc(S(C)(=O)=O)cc1C(=O)N1CCN(CCCc2c[nH]c3ccc(C#N)cc23)CC1)C(F)(F)F (centres unmarked) [Compound 13c] | 1140 | 197 |  | 
CNS(=O)(=O)c1ccc(OCC(C)C)c(C(=O)N2CCN(CCCc3c[nH]c4ccc(C#N)cc34)CC2)c1 [Compound 13h] | 567 | 5.67 |  | 
N#Cc1ccc2[nH]cc(CCCN3CCN(C(=O)c4cc(S(=O)(=O)NCC5CC5)ccc4OCC4CC4)CC3)c2c1 [Compound 13g] | 2280 | 5.35 |  | 4310
CNS(=O)(=O)c1ccc(OCC2COC2)c(C(=O)N2CCN(CCCc3c[nH]c4ccc(C#N)cc34)CC2)c1 [Compound 13i] | 4190 | 400 |  | 
N#Cc1ccc2[nH]cc(CCCN3CCN(C(=O)c4cc(S(=O)(=O)NCC5CC5)ccc4OCC4COC4)CC3)c2c1 [Compound 13n] | > 5000 | 31.6 |  | 
CS(=O)(=O)c1ccc(OCC2CC2)c(C(=O)N2CCN(CCCc3c[nH]c4ccc(C#N)cc34)CC2)c1 [Compound 13d] | 887 | 88 |  | 
CCOc1ccc(S(=O)(=O)NC)cc1C(=O)N1CCN(CCCc2c[nH]c3ccc(C#N)cc23)CC1 [Compound 13k] | 1780 | 77.5 |  | 
